Results published in publication PMC4867112 (Biochemistry, 2016).

T1: DREAM(Δ64) (Mus musculus, UniProt Q9QXT8)
T1 sequence (Q9QXT8 65-256): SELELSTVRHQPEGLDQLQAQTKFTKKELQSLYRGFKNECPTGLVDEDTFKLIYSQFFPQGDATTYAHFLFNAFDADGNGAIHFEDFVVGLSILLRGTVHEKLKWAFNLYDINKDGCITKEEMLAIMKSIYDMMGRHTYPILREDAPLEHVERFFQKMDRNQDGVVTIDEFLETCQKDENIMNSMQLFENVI


Key:
[1] = biological target: T1, DREAM(Δ64); assay: Tb3+ luminescence decay titration; assay type: binding
[2] = biological target: the molecule itself; assay: fluorescence anisotropy decay

Molecule	Kd [1]	stoichiometry N [2]
O=C(Nc1cc(C(F)(F)F)cc(C(F)(F)F)c1)Nc1c(Br)cc(Br)cc1-c1nn[nH]n1 [NS5806, 1-[2,4-dibromo-6-(1H-tetrazol-5-yl)-phenyl]-3-(3,5-bis-trifluoromethyl-phenyl)urea]	~37 µM	
DREAM(Δ64), mouse DREAM (downstream regulatory element antagonist modulator) construct lacking residues 1–64 (domain or fragment, UniProt Q9QXT8 65-256, looked up) SELELSTVRHQPEGLDQLQAQTKFTKKELQSLYRGFKNECPTGLVDEDTFKLIYSQFFPQGDATTYAHFLFNAFDADGNGAIHFEDFVVGLSILLRGTVHEKLKWAFNLYDINKDGCITKEEMLAIMKSIYDMMGRHTYPILREDAPLEHVERFFQKMDRNQDGVVTIDEFLETCQKDENIMNSMQLFENVI		2
